What was measured:
[1] = In vitro photo-release and hydrolytic release of dicamba in an aqueous medium (Example 35); format: physicochemical; conditions: 0.01 mM ester, 35° C.
[2] = In vitro dicamba photo-release from photo-labile dicamba esters, tetrahydrofuran solvent (Example 26); format: physicochemical; conditions: THF, 0.1 mM ester
Summary of the method: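 Esters at 0.1 mM in THF, sealed in quartz tubes and exposed to simulated sunlight 14 h per day at 35 °C. Dicamba released was measured over the photolysis, with an unilluminated sample of the starting solution serving as dark control.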

broadleaf weeds = experiment: Control of broadleaf weeds by ester concentrates (statements of the description); format: in vivo
hemp sesbania = experiment: Field testing of emulsifiable concentrates, post-emergent control (Example 38); format: in vivo
morning glory = experiment: as above; format: in vivo
velvetleaf [3] = experiment: as above; format: in vivo
[4] = system: glyphosate-tolerant, dicamba-sensitive soy plants; experiment: Humidome volatility injury to dicamba-sensitive plants (Example 31); conditions: assessed after three weeks in greenhouse
Excerpt: In this case, the diglycolamine salt of dicamba (CLARITY®) was used for comparison.
Dicamba photo-labile ester formulations from Example 28 were mixed with a commercial glyphosate formulation (ROUNDUP POWERMAX®) and diluted to provide a solution with a 0.5% dicamba equivalent concentrate of the ester (or dicamba diglycolamine salt) and 1.5% concentrate of glyphosate. The mixtures were sprayed at a 10 gallon per acre (93.5 liters per hectare) rate on soil in a plastic container (“humidome”) with a transparent lid. One soil container was sprayed with water as a control. Four glyphosate-tolerant, dicamba-sensitive soy plants between V2 and V3 stage were immediately placed on the sprayed soil and the domes attached to the trays with binder clips. The soy plants were in pots placed directly on the soil but with aluminum foil wrapped around the bottom to prevent uptake of dicamba or dicamba esters through the roots.
The closed containers were held for 24 hours in a growth chamber which was maintained at 35° C. with 40% relative humidity. The plants were then removed and grown in a greenhouse for three weeks. At this time plant injury and growth stage were assessed compared to the control treated with water only.

Euphorbia species = experiment: Field testing for post-emergent activity in the Southern Hemisphere (Example 39); format: in vivo; conditions: 9 as suspension concentrate, other esters as emulsifiable concentrates
Summary of the method: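 Southern Hemisphere field trial, post-emergence application on Euphorbia weeds. Esters applied as emulsifiable concentrates in aromatic solvent with emulsifiers, one ester as a suspension concentrate. Dicamba diglycolamine salt served as comparator.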

velvetleaf [5] = experiment: Greenhouse post-emergent control of velvetleaf by emulsifiable concentrates (Example 29); format: in vivo; conditions: three weeks after treatment
Summary of the method: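 Greenhouse velvetleaf 10–15 cm tall sprayed post-emergence with photo-labile ester emulsifiable concentrates at 140, 280, 420 and 560 g dicamba equivalent/ha, alongside dicamba diglycolamine salt at the same rates and untreated plants. Percent control scored three weeks after treatment.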

[6] = 280 and 420 g dicamba acid equivalent per hectare
[7] = 280 g dicamba acid equivalent per hectare, 11 or 21 days after treatment
[8] = 420 g dicamba acid equivalent per hectare, 11 or 21 days after treatment

COc1c(Cl)ccc(Cl)c1C(=O)OCc1ccccc1[N+](=O)[O-] [Ester 1a, 2-Nitrobenzyl Ester of Dicamba]
Conversion to Dicamba, Dark, Day 0 ([1]; amber (dark) bottle, Day 0): 7% | Conversion to Dicamba, Dark, Day 1 ([1]; amber (dark) bottle, Day 1): 8% | Conversion to Dicamba, Dark, Day 2 ([1]; amber (dark) bottle, Day 2): 8% | Conversion to Dicamba, Dark, Day 3 ([1]; amber (dark) bottle, Day 3): 8% | Conversion to Dicamba, Dark, Day 4 ([1]; amber (dark) bottle, Day 4): 7% | Conversion to Dicamba, Dark, Day 7 ([1]; amber (dark) bottle, Day 7): 8% | Conversion to dicamba, Dark, Day 10 ([1]; amber (dark) bottle, Day 10): 8% | Conversion to Dicamba, Dark, Day 14 ([1]; amber (dark) bottle, Day 14): 8% | Conversion to Dicamba, Dark, Day 21 ([1]; amber (dark) bottle, Day 21): 8% | Conversion to Dicamba, Dark, Day 28 ([1]; amber (dark) bottle, Day 28): 8% | Conversion to Dicamba, Light, Day 0 ([1]; quartz tube, 14-hour day, Day 0): 7% | Conversion to Dicamba, Light, Day 1 ([1]; quartz tube, 14-hour day, Day 1): 13% | Conversion to Dicamba, Light, Day 2 ([1]; quartz tube, 14-hour day, Day 2): 16% | Conversion to Dicamba, Light, Day 3 ([1]; quartz tube, 14-hour day, Day 3): 18% | Conversion to Dicamba, Light, Day 4 ([1]; quartz tube, 14-hour day, Day 4): 21% | Conversion to Dicamba, Light, Day 7 ([1]; quartz tube, 14-hour day, Day 7): 29% | Conversion to dicamba, Light, Day 10 ([1]; quartz tube, 14-hour day, Day 10): 37% | Conversion to Dicamba, Light, Day 14 ([1]; quartz tube, 14-hour day, Day 14): 54% | Conversion to Dicamba, Light, Day 21 ([1]; quartz tube, 14-hour day, Day 21): 75% | Conversion to Dicamba, Light, Day 28 ([1]; quartz tube, 14-hour day, Day 28): 107% | Dark Control % dicamba ([2]; initial solution kept away from the light source, analyzed at conclusion of study): 1% | Conversion to dicamba, 1 day ([2]; simulated sunlight 14 hours per day, 35° C., 1 day): 22% | Conversion to dicamba, 2 days ([2]; simulated sunlight 14 hours per day, 35° C., 2 days): 33% | Conversion to dicamba, 3 days ([2]; simulated sunlight 14 hours per day, 35° C., 3 days): 47% | Conversion to dicamba, 5 days ([2]; simulated sunlight 14 hours per day, 35° C., 5 days): 66% | Conversion to dicamba, 7 days ([2]; simulated sunlight 14 hours per day, 35° C., 7 days): 76% | control of a number of broadleaf weeds in field testing, in words (broadleaf weeds; emulsifiable and suspension concentrates, Sesbania macrocarpa, morning glory, velvetleaf, Palmer amaranth, fat hen, sicklepod): proven effective | field efficacy for control of broadleaf weeds compared with the diglycolamine salt of dicamba, in words (broadleaf weeds; field tests of emulsifiable concentrates): slightly more effective than the diglycolamine salt of dicamba | post-emergent control of hemp sesbania compared with the dicamba salt, in words (hemp sesbania; [6]): equivalent to the dicamba salt | % control, 280 g/ha, Hemp sesbania (hemp sesbania; [7]): 95% | % control, 420 g/ha, Hemp sesbania (hemp sesbania; [8]): 98% | post-emergent control of morning glory compared with the dicamba salt, in words (morning glory; [6]): equivalent to the dicamba salt | % control, 280 g/ha, Morning glory (morning glory; [7]): 100% | % control, 420 g/ha, Morning glory (morning glory; [8]): 98% | post-emergent control of velvetleaf compared with the dicamba salt, in words (velvetleaf [3]; [6]): equivalent to the dicamba salt | % control, 280 g/ha, Velvetleaf (velvetleaf [3]; [7]): 86% | % control, 420 g/ha, Velvetleaf (velvetleaf [3]; [8]): 92% | % Injury ([4]; soy plants 24 hours in closed humidome over sprayed soil (0.5% dicamba equivalent + 1.5% glyphosate), 35° C.): 8% | Growth Stage ([4]; soy plants 24 hours in closed humidome over sprayed soil): 8 | % control, 0.25 lb/ac (0.28 kg/hectare) (Euphorbia species; 0.25 lb dicamba a.e. per acre): 72% | % control, 0.50 lb/ac (0.56 kg/hectare) (Euphorbia species; 0.50 lb dicamba a.e. per acre): 78% | % Control of velvetleaf, 140 g/ha (velvetleaf [5]; 140 g dicamba equivalent per hectare): 46% | % Control of velvetleaf, 280 g/ha (velvetleaf [5]; 280 g dicamba equivalent per hectare): 60% | % Control of velvetleaf, 420 g/ha (velvetleaf [5]; 420 g dicamba equivalent per hectare): 75% | % Control of velvetleaf, 560 g/ha (velvetleaf [5]; 560 g dicamba equivalent per hectare): 73%
